From patent US9499823B2, “Constructs expressing chimeric receptors and use thereof for the controlled activation of defence response to pathogens in plants” (priority 2009, dated 2016)
Entries after “also recorded” stand apart in the source; their conditions may differ.

Experiments:
[1] = tested on: agroinfiltrated leaves of the Arabidopsis bak1-4 mutant; assay: Receptor internalization in agroinfiltrated leaves of the Arabidopsis bak1-4 mutant; assay type: cell-based, Arabidopsis thaliana; details: 10 μM flg22, 30 min
Protocol: D) Relative variation of fluorescence in agroinfiltrated leaves of the Arabidopsis bak1-4 mutant expressing the indicated receptors and treated for 30 min with 10 μM flg22. Each value was normalised against fluorescence measured after 10 min of stimulation.
(§1) The GFP-dependent fluorescence was monitored from 2 to 4 days post infection in cells of the lower epidermis. Pieces of leaf were randomly cut from the infected area and mounted in water or supplemented with elicitors for microscopic observations. Flg22 and elfl8 were used at 10 μM while oligosaccharides were used at 100 μg/mL. Materials were analyzed using a Leica DM IRE epifluorescence microscope equipped with a digital cooled camera (DFC350FX R2; Leica). GFP fluorescence was excited with a 488-nm laser line, and emitted fluorescence was collected at 543-nm. The Leica Confocal Software and Adobe Photoshop 5.0 were used for post-acquisition image processing. All samples were imaged with the 40× or 100× oil objectives. Pictures were taken in Kahlman frame giving an average of 16 scans for the dynamics of internalization and 4 scans for the cellular localizations.
The authors also tested whether the presence of the LRR-RLK BAK1 (Nam & Li 2002), a protein required for flg22 and elfl8 signalling (Chinchilla et al., 2007), is also required for the internalization of eJMC induced by flg22.

[2] = tested on: agroinfiltrated leaves of N. tabacum ecotype SR1; assay: Receptor internalization in agroinfiltrated tobacco leaves; assay type: cell-based, Nicotiana tabacum
Protocol: E) Relative variation of fluorescence in agroinfiltrated tobacco leaves expressing EFR, FLS2, eJMC and TMC and treated with 10 μM elfl8 or 10 μM flg22 for 30 min.
as §1
The behaviour of TMC and eJMC upon treatment with flg22 and elfl8 was also analysed in agroinfiltrated leaves of N. tabacum ecotype SR1 and compared to that of EFR and FLS2. […] Instead, in the eJMC expressing plants fluorescence decreased within 10-30 min after stimulation with flg22, at an extent similar to that observed in Arabidopsis, i.e. by 25% and 35% after 20 min and 30 min, respectively (FIG. 3E).

[3] = tested on: ethylene biosynthesis in tobacco leaves; assay: Induction of ethylene biosynthesis in agroinfiltrated tobacco leaf explants; assay type: cell-based, Nicotiana tabacum; details: for ethylene release induced by flg22: flg22, 2 h, compared with EFR-expressing explants as negative controls
Protocol: F) Induction of ethylene biosynthesis in agroinfiltrated tobacco leaves expressing the fluorescent EFR, FLS2, TMC, eJMC and eJMC^Y859A. NC: negative control, represented by agroinfiltrated leaf tissues expressing fluorescent EFR or FLS2 and elicited with flg22 or elfl8, respectively. Results are averages±standard error (n=3).
Excised infiltrated leaf sectors were stimulated for 2 h with water or the elicitor ([…] and 100 μg/ml for OGs). Values are means±s.e.m. (N=3).
E) Induction of ethylene biosynthesis in agroinfiltrated tobacco leaves expressing EFR, WAK1, WEG and EWAK. Each construct was stimulated for 2 h with elfl8 (10 μM) or OGs (100 μg/mL). NC: negative control, represented by agroinfiltrated leaf tissue expressing EFR or FLS2 when OGs or elfl8, respectively, were used for elicitation. Error bars indicate the standard error of three independent replicates.
(A) Induction of ethylene biosynthesis in agroinfiltrated tobacco explants expressing EFR, WAK1, WEG and EWAK. […] Agroinfiltrated leaf tissues expressing EFR or WEG and elicited with OGs or elfl8 respectively, represented our negative control. Values are means±s.e.m. (N=3). (B) Elicitor-induced gene expression in untransformed Col-0 and Col-0 efr plants, and in transgenic Arabidopsis Col-0 efr plants stably expressing WEG. Accumulation of At3g22270 and At4g37640 transcripts was analysed by semi-quantitative PCR, using the UBQ5 gene for normalization. Adult leaves were syringe-infiltrated with water, OGs (25 μg/ml) or elfl8 (10 μM) for 3 h. The experiment was repeated three times with similar results. The same experiment was performed in a second independent transgenic line expressing WEG with similar results.
Approximately 150 mg of tobacco agroinfiltrated leaf were cut in small slices and extensively washed with sterile distilled water. The explants were placed in sealed 10 mL flasks containing 2 mL of sterile water alone or supplemented with 100 mg L^−1 OGs, or 1 μM flg22 or 10 μM elfl8. 450 μl headspace samples were withdrawn from the vial after 2 h treatment and analyzed by gas chromatography-mass spectrometry using an Agilent 6850A gas chromatograph coupled to a 5973N quadrupole mass selective detector (Agilent Technologies, Palo Alto, Calif., USA). Chromatographic separations were carried out an HP Plot-Q fused-silica capillary column (30 m×0.32 mm i.d.) coated with polystyrene-divinylbenzene (film thickness 0.20 μm) as stationary phase. Injection mode: splitless at a temperature of 220° C. The initial temperature of the oven was held at 50° C. for 8 min then ramped to 220° C. at a rate of 15° C./min and held for 5 min. Helium was used as carrier gas at a constant flow of 1.0 ml/min. Mass spectra were collected both in full scan and in SIM mode monitoring the ions m/z m/z 26, m/z 27 and m/z 28 (ionization energy 70 eV; ion source 280° C.; ion source vacuum 10^−5 Torr).

[4] = tested on: oxidative burst in tobacco leaves; assay: Oxidative burst, luminol-dependent photon counting in agroinfiltrated tobacco leaf slices; assay type: cell-based, Nicotiana tabacum; details: 10 μM elfl8, after 15 min
Protocol: D) Oxidative burst in tobacco leaves transiently expressing eJMC, EFR and EWAK. Photon counting was realized using tobacco leaves slices in a solution of luminol and peroxidase, during treatment with 10 μM elfl8. eJMC- and EFR-expressing explants were used as a negative and a positive control, respectively. Experiment was repeated at least 6 times on two independent replicated.
(C) Oxidative burst in agroinfiltrated tobacco leaves expressing EWAK. Leaves expressing eJMC and EFR were used as a negative and a positive control, respectively. The burst was measured by photon counting using leaf slices incubated in a solution containing 10 μM elfl8, luminol and peroxidase. The experiment was repeated at least 6 times with two independent replicates.
3,3′-diaminobenzidine (DAB) staining, callose deposition and gene resistance analysis were assayed as described (Galletti et al., 2008). For measuring active oxygen species released by tobacco agroinfiltrated plants after elicitor treatment, the authors used a modified luminol-dependent assay (Gomez et al., 1999). Slices, corresponding to approximately 30 mg fresh weight, were transferred to assay tubes containing 1 μM flg22 or 10 μM elfl8 in aqueous solution supplied with 40 μM luminol (SIGMA). Chemo-luminescence was measured in a liquid scintillation counter (LS-6500, Beckman) after 5 and 15 min upon addition of elicitors.

Which results are given for “eJMC: chimera (Arg806FLS2-Val650EFR): LRR and eJM domains of FLS2 fused upstream of TM, iJM and kinase domains of EFR, GFP-fused”?
internalization induced by flg22 in the bak1-4 mutant [1]: not affected; fluorescence decrease after stimulation with flg22 ([2]; 10 μM flg22, after 20 min): 25%; fluorescence decrease after stimulation with flg22 ([2]; 10 μM flg22, after 30 min): 35%; ethylene accumulation upon stimulation with elfl8 ([3]; elfl8 10 μM, 2 h): did not; ethylene release induced by flg22 [3]: significantly higher; oxidative burst upon treatment with elfl8 [4]: not; oxidative burst upon treatment with elfl8 ([4]; listed as eJM): did not show any significant response

Which results are given for FLS2 [reference compound]?
internalization induced by flg22 in the bak1-4 mutant [1]: nearly abolished; internalization after stimulation with flg22 ([2]; 10 μM flg22, 30 min): Neither FLS2 nor TMC underwent internalization; ethylene release induced by flg22 [3]: only a weak response

B1: WEG: chimeric receptor: WAK1 ectodomain fused to the TM-iJM-kinase portion of EFR, GFP-fused (protein)
chain: QHQPGENCQNKCGNITIEYPFGISSGCYYPGNESFSITCKEDRPHVLSDIEVANFNHSGQLQVLLNRSSTCYDEQGKKTEEDSSFTLENLSLSANNKLTAVGCNALSLLDTFGMQNYSTACLSLCDSPPEADGECNGRGCCRVDVSAPLDSYTFETTSGRIKHMTSFHDFSPCTYAFLVEDDKFNFSSTEDLLNLRNVMRFPVLLDWSVGNQTCEQVGSTSICGGNSTCLDSTPRNGYICRCNEGFDGNPYLSAGCQDVNECTTSSTIHRHNCSDPKTCRNKVGGFYCKCQSGYRLDTTTMSCKRKEVVSGICIGIASLLLIIIVASLCWFMKRKKKNNASDGNPSDSTTLGMFHEKVSYEELHSATSRFSSTNLIGSGNFGNVFKGLLGPENKLVAVKVLNLLKHGATKSFMAECETFKGIRHRNLVKLITVCSSLDSEGNDFRALVYEFMPKGSLDMWLQLEDLERVNDHSRSLTPAEKLNIAIDVASALEYLHVHCHDPVAHCDIKPSNILLDDDLTAHVSDFGLAQLLYKYDRESFLNQFSSAGVRGTIGYAAPEYGMGGQPSIQGDVYSFGILLLEMFSGKKPTDESFAGDYNLHSYTKSILSGCTSSGGSNAIDEGLRLVLQVGIKCSEEYPRDRMRTDEAVRELISIRSKFFSSKTTITESPRDAPQSSPQEWMLNTDMHTM
modifications: left off: large carriers
Which “ethylene accumulation induced by OGs relative to negative control” value ([3]; OGs 100 μg/mL, 2 h, negative control OG-stimulated EFR-expressing tissues) does the source give for B1 here?
The value was 2.4 times.

B2: EFR: Arabidopsis LRR receptor kinase Elongation Factor Tu Receptor (AT5G20480); GFP-fused control (protein)
chain: RFSNETDMQALLEFKSQVSENNKREVLASWNHSSPFCNWIGVTCGRRRERVISLNLGGFKLTGVISPSIGNLSFLRLLNLADNSFGSTIPQKVGRLFRLQYLNMSYNLLEGRIPSSLSNCSRLSTVDLSSNHLGHGVPSELGSLSKLAILDLSKNNLTGNFPASLGNLTSLQKLDFAYNQMRGEIPDEVARLTQMVFFQIALNSFSGGFPPALYNISSLESLSLADNSFSGNLRADFGYLLPNLRRLLLGTNQFTGAIPKTLANISSLERFDISSNYLSGSIPLSFGKLRNLWWLGIRNNSLGNNSSSGLEFIGAVANCTQLEYLDVGYNRLGGELPASIANLSTTLTSLFLGQNLISGTIPHDIGNLVSLQELSLETNMLSGELPVSFGKLLNLQVVDLYSNAISGEIPSYFGNMTRLQKLHLNSNSFHGRIPQSLGRCRYLLDLWMDTNRLNGTIPQEILQIPSLAYIDLSNNFLTGHFPEEVGKLELLVGLGASYNKLSGKMPQAIGGCLSMEFLFMQGNSFDGAIPDISRLVSLKNVDFSNNNLSGRIPRYLASLPSLRNLNLSMNKFEGRVPTTGVFRNATAVSVFGNTNICGGVREMQLKPCIVQASPRKRKPLSVRKKVVSGICIGIASLLLIIIVASLCWFMKRKKKNNASDGNPSDSTTLGMFHEKVSYEELHSATSRFSSTNLIGSGNFGNVFKGLLGPENKLVAVKVLNLLKHGATKSFMAECETFKGIRHRNLVKLITVCSSLDSEGNDFRALVYEFMPKGSLDMWLQLEDLERVNDHSRSLTPAEKLNIAIDVASALEYLHVHCHDPVAHCDIKPSNILLDDDLTAHVSDFGLAQLLYKYDRESFLNQFSSAGVRGTIGYAAPEYGMGGQPSIQGDVYSFGILLLEMFSGKKPTDESFAGDYNLHSYTKSILSGCTSSGGSNAIDEGLRLVLQVGIKCSEEYPRDRMRTDEAVRELISIRSKFFSSKTTITESPRDAPQSSPQEWMLNTDMHTM
Which results are given for B2?
internalization response upon stimulation with elfl8 ([2]; 10 μM elfl8, 30 min): no response; ethylene accumulation upon stimulation with elfl8 ([3]; elfl8 10 μM, 2 h): accumulated ethylene; release of ethylene induced by elfl8 relative to negative control ([3]; elfl8 10 μM, 2 h, negative control FLS2-expressing explants): 3.8 times; oxidative burst upon treatment with elfl8 [4]: produced an oxidative burst; also recorded: robust oxidative burst
